Earlier results in US20230210865A1, “MIDAZOLAM PREMIX FORMULATIONS AND USES THEREOF” (Baxter International, Inc., priority 2021, published 2023).
Structures can show the parent of a compound that is named as a salt.

SMILES: Cc1ncc2n1-c1ccc(Cl)cc1C(c1ccccc1F)=NC2 [Midazolam HCl, 8-chloro-6-(2-fluorophenyl)-1-methyl-4H-imidazo[1,5-a][1,4]benzodiazepine hydrochloride]
- Onset time of sedative effects (after intramuscular administration in adults): about fifteen
- Potency relative to diazepam (sedative agent, administered by injection): about twice
